Experimental data reported in patent publication US20070015813A1, “Treatment of protein folding disorders” (QUEEN'S UNIVERSITY AT KINGSTON, priority 2005, published 2007).

Key:
α-synuclein = molecular target: T1, α-synuclein (Homo sapiens, UniProt P37840); assay: α-Synuclein aggregation ThT fluorescence assay; type: biochemical; conditions: α-Synuclein (6 μM), 10 μM ThT, pH 7.4, 37° C., compound 100 μM or as indicated
T1 construct: purchased rPeptide, Bogart, GA
Experimental: α-Synuclein (1.0 mg) was dissolved directly in Tris-HCl (11.53 mL, 20 mM, pH 7.4, 100 mM NaCl) containing DTT (5 mM) and ThT (10 μM).
Aliquots (200 μL) of Aβ^1-40, Aβ^1-42, tau441 or α-synuclein with ThT or ThS were added to wells of a black polystyrene 96-well plate, followed by 2 μL of a compound in DMSO (various concentrations), or DMSO alone (controls). For α-synuclein, sodium dodecyl sulfate solution (2.0 μL, 30 mM) was also added to each well to induce aggregation. […] Plates were covered with clear polystyrene lids and incubated at 37° C. in a GENios microplate reader obtained from Tecan Group Limited, Mannedorf, Zurich. For Aβ^1-40, tau441 and α-synuclein, fluorescence readings (λex=450 nm, λem=480 nm) were taken every 15 min., after first shaking at high intensity for 15 sec. and allowing to settle for 10 sec. before each reading. For Aβ^1-42, readings were taken every 5 min.
FIG. 12 depicts inhibition of α-synuclein aggregation by synthesized bi-aromatics and positive control morin (K, Yamada M. 2006. J Neurochem 97:105-15). Aggregation conditions: α-Synuclein (6 μM) was incubated in covered black 96-well polystyrene microplates in Tris-HCl (20 mM, pH 7.4), 10 μM ThT, 1% DMSO with compound concentrations of 100 μM (A) or as indicated (B). Plates were heated at 37° C. in a Tecan Genios microplate reader. […] Fluorescence readings: fluorescence was measured every 15 min. […]

Aβ1-40 [1] = molecular target: T2, Aβ1-40 (Homo sapiens, UniProt P05067); assay: Aβ1-40 disaggregation assay; type: biochemical; conditions: compound added after incubating at 37° C. for 46 hrs., ThT fluorescence
T2 construct: Aβ^1-40 (AnaSpec, San Jose, Calif., lots 14212, 34862 and 34889); purchased AnaSpec, San Jose, Calif
T2 sequence (P05067 672-711 limits assumed): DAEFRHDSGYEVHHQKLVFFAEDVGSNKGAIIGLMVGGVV
Experimental: Aβ^1-40 was allowed to aggregate under conditions described in Thioflavin T Aggregation Assay except that no DMSO was added initially. After 46 hrs., compound in DMSO or vehicle was added (2 μL) and the fluorescence measured every 15 min. as detailed above. […] FIG. 3 depicts dose-response curves for inhibition of Aβ^1-40 aggregation by 0j and positive control, morin. FIG. 4 depicts the inhibition of Aβ^1-40 aggregation by 0c in “seeded” ThT assay. FIG. 5 depicts disaggregation of Aβ^1-40 by 0c and positive control, morin. After incubating at 37° C. for 46 hrs. 0c, morin or vehicle were added as DMSO solutions (1:100) and the fluorescence measured every 15 min.

Aβ1-40 [2] = molecular target: T2, Aβ1-40; assay: “Seeded” Thioflavin T aggregation assay for Aβ1-40; type: biochemical; conditions: HFIP pretreatment omitted
From the text: The same procedure as described in Thioflavin T Aggregation Assay was used for “seeded” ThT aggregarion assay for Aβ^1-40 but the HFIP pretreatment was omitted. The presence of small Aβ^1-40 aggregates in the untreated batches caused aggregation to begin immediately rather than after a 12-24 hr. lag period.

Aβ1-40 [3] = molecular target: T2, Aβ1-40; assay: 1H NMR binding of bi-aromatics to Aβ1-40; conditions: 100 μM Aβ1-40, 50 μM compound, D2O, 27° C.
Experimental: Aβ^1-40 was dissolved in HFIP (1 mL) and sonicated (20 min) to disassemble any pre-formed aggregates. The HFIP was removed with a stream of Ar(g) and the waxy residue dissolved in 2.2 mL buffer (Tris-d11, 20 mM in D2O). Incubations (0.500 mL) were made directly in thin-walled NMR tubes, to which were added compound (2.5 μL, 10 mM in DMSO-d6) or vehicle. An identical incubation lacking Aβ^1-40 was used as compound reference. Spectra were obtained for Aβ^1-40 alone (100 μM), compound alone (50 μM) and for a mixture of both (100 μM Aβ^1-40, 50 μM compound). Spectra were recorded at 500 MHz and 27° C. (300K), with 674 scans obtained for each.
FIG. 9 depicts ^1H NMR spectra identifying binding of 5-bromo-5′-carboxy-3,3′-bis-indolyl (0c) to Aβ^1-40. Spectra were obtained for Aβ^1-40 alone (100 μM, A), compound alone (50 μM, C) and for a mixture of both (100 μM Aβ^1-40, 50 μM compound, B). Spectra were recorded at 500 MHz and 27° C. (300K) in D2O containing 1% DMSO-d6, and 674 scans were obtained for each.

Row | inhibition of α-synuclein aggregation (ThT fluorescence) (α-synuclein) | disaggregation of Aβ1-40 (Aβ1-40 [1]) | inhibition of Aβ1-40 aggregation in “seeded” ThT assay (Aβ1-40 [2]) | binding to Aβ1-40 by 1H NMR (signal broadening) (Aβ1-40 [3]) | Compound
1 | inhibition | disaggregation | – | – | O=c1c(O)c(-c2ccc(O)cc2O)oc2cc(O)cc(O)c12 [morin]
2 | – | disaggregation | inhibition | binding | O=C(O)c1ccc2[nH]cc(-c3c[nH]c4ccc(Br)cc34)c2c1 [0c, 3-(5-bromo-indol-3-yl)-indole-5-carboxylic Acid]
